Source: US11248019B2, “Trityl-mono-GalNAc compounds and their use” (Hoffmann-La Roche Inc., priority 2016, dated 2022)

Assays:
ApoB mRNA [1] = assay: ApoB mRNA knockdown in liver and kidney by qPCR, single sc dose, sacrifice day 10 (Example 4); format: in vivo, C57BL6/J mice; details: 0.25 mg/kg single sc dose
Description: (§1) Female C57BL6/J mice (5/group appr. 20 g at arrival) were injected subcutaneous (sc) with a single dose saline or 0.25 mg/kg unconjugated LNA-antisense oligonucleotide (compound F) or with 0.25 mg/kg or 0.1 mg/kg of GalNAc conjugated LNA antisense oligonucleotide (Compound C or E of the invention or reference compound G). Blood samples of 50 μl were collected pre-dosing at day minus 6, and post dosing at day 3 and 7. The animals were sacrificed at day 10 and total serum was collected as well as liver and kidney.
(§2) ApoB mRNA knockdown was analyzed by qPCR. In brief, RNA was isolated from homogenized liver and kidney using MagnaPure RNA Isolation and purification system (catalog #03604721001 and #05467535001; Roche) according to the manufacturer's instructions. RT-QPCR was done using Taqman Fast Universal PCR Master Mix 2×(Applied Biosystems Cat #4364103) and Taqman gene expression assay (mApoB, Mn01545150_m1 and mGAPDH #4352339E) following the manufacturers protocol.

[2] = Oligonucleotide content in liver and kidney by ELISA (Example 4); format: in vivo, C57BL6/J mice; details: 0.25 mg/kg single sc dose, day 10
Description: as §1
The oligonucleotide content in the liver and kidney was measured using ELISA (see for example Straarup et al 2010 Nucleic Acid Res Vol 38 pp 7100-7111), results are shown in Table 6.

ApoB mRNA [3] = assay: ApoB mRNA knockdown in liver and kidney by qPCR, single iv dose, sacrifice day 3 (Example 6); format: in vivo, C57BL6/J mice
Description: as §2
(§3) Female C57BL6/J mice (5/group appr. 20 g at arrival) were injected intravenous (iv) with a single dose saline, 0.22 mg/kg, 0.45 mg/kg or 0.89 mg/kg, of GalNAc conjugated LNA antisense oligonucleotide (Compound H, I or J of the invention) or the naked reference compound F. Blood samples of 50 μl were collected pre-dosing at day minus 6. The animals were sacrificed at day 3. Total serum was collected as well as liver and kidney.

[4] = Oligonucleotide content in liver and kidney by ELISA (Example 6); format: in vivo, C57BL6/J mice; details: day 3
Description: as §3
The oligonucleotide content in the liver and kidney was measured using ELISA (see for example Straarup et al 2010 Nucleic Acid Res Vol 38 pp 7100-7111), results are shown in Table 11A and 11B.

[5] = tested on: total cholesterol in serum; assay: Total cholesterol in serum (Example 6); format: in vivo, C57BL6/J mice; details: day 3
Description: as §3
Total cholesterol in serum was measured using ABX Pentra Cholesterol CP (Triolab, Brondby, Denmark) according to the manufacturer's instructions.

ALT in serum (Example 6) = format: in vivo, C57BL6/J mice; details: day 3
Description: as §3
ALT (Alanine aminotransferase) was measured using ABX Pentra ALT CP reagent (A11A01627 Triolab, Brondby, Denmark. The results are shown in Table 13.

ApoB mRNA [6] = assay: ApoB mRNA knock down in primary mouse hepatocytes, qPCR (Example 9); format: cell-based, C57BL/6J female mice; details: n = 2
Description: Primary mouse hepatocytes were isolated from C57BL/6J female mice. The mice were anesthesized and the liver was perfused at a flow rate of 7 ml per min through the vena cava using Hank's balanced salt solution containing 15 mM Hepes and 0.38 mM EGTA for 5 min followed by collagenase solution (Hank's balanced salt solution containing 0.17 mg/ml Collagenase type 2 (Worthington 4176), 0.03% BSA, 3.2 mM CaCl2 and 1.6 g/I NaHCO3) for 12 min. Following perfusion, the liver was removed and the liver capsule was opened, the liver suspension was filtered through 70 μm cell strainer using William E medium. The cell suspension was centrifuged for 3 min at 50×g. Viable hepatocytes were further enriched by gradient centrifugation with 45% Percoll (Sigma cat. No. P4937) for 10 min at 50×g. The pellet was washed and resuspended in 25 ml William E medium (Sigma cat. no. W1878 complemented with 1×Pen/Strep, 2 mM L-glutamine and 10% FBS (ATCC #30-2030)), and seeded at 25.000 cells per well in collagen coated 96 well plates. After 3 hours the medium was exchanged and the oligonucleotides were added using 3 fold dilutions from […]. Two different incubation regimens were used, one where the cells were incubated 4 hours with oligonucleotide following a medium exchange and continued incubation to a total of 72 hours. […]

[7] = tested on: primary mouse hepatocytes; assay: Oligonucleotide content in primary mouse hepatocyte culture by ELISA (Example 9); format: in vitro ADME, C57BL/6J female mice
Description: Primary mouse hepatocytes were isolated from C57BL/6J female mice. The mice were anesthesized and the liver was perfused at a flow rate of 7 ml per min through the vena cava using Hank's balanced salt solution containing 15 mM Hepes and 0.38 mM EGTA for 5 min followed by collagenase solution (Hank's balanced salt solution containing 0.17 mg/ml Collagenase type 2 (Worthington 4176), 0.03% BSA, 3.2 mM CaCl2 and 1.6 g/I NaHCO3) for 12 min. Following perfusion, the liver was removed and the liver capsule was opened, the liver suspension was filtered through 70 μm cell strainer using William E medium. The cell suspension was centrifuged for 3 min at 50×g. Viable hepatocytes were further enriched by gradient centrifugation with 45% Percoll (Sigma cat. No. P4937) for 10 min at 50×g. The pellet was washed and resuspended in 25 ml William E medium (Sigma cat. no. W1878 complemented with 1×Pen/Strep, 2 mM L-glutamine and 10% FBS (ATCC #30-2030)), and seeded at 25.000 cells per well in collagen coated 96 well plates. […] Two different incubation regimens were used, one where the cells were incubated 4 hours with oligonucleotide following a medium exchange and continued incubation to a total of 72 hours. In the second regimen the cells were incubated for 72 hours with the oligonucleotides.
Oligonucleotide content analysis was performed using ELISA (see for example Straarup et al 2010 Nucleic Acid Res Vol 38 pp 7100-7111), results are shown in table 20 and 21 below.

Substance: 5′-GS^mCSaStStSgSgStSaStSTS^mCSA-3′ [Compound F, reference compound]
- ApoB mRNA expression as % of saline, mRNA kidney (ApoB mRNA [1]; day 10, kidney): 24.7 % of saline
- ApoB mRNA expression as % of saline, mRNA liver (ApoB mRNA [1]; day 10, liver): 74.5 % of saline
- Oligonucleotide content, Kidney [2]: 1.370 μg/g tissue
- Oligonucleotide content, Liver [2]: 0.028 μg/g tissue
- ApoB mRNA expression as % of saline in kidney (ApoB mRNA [3]; 0.22 mg/kg single iv dose): 68.0 % of saline
- ApoB mRNA/mGAPDH expression as % of saline in liver (ApoB mRNA [3]; 0.22 mg/kg single iv dose): 87.5 % of saline
- ApoB mRNA expression as % of saline in kidney (ApoB mRNA [3]; 0.45 mg/kg single iv dose): 51.1 % of saline
- ApoB mRNA/mGAPDH expression as % of saline in liver (ApoB mRNA [3]; 0.45 mg/kg single iv dose): 90.2 % of saline
- ApoB mRNA expression as % of saline in kidney (ApoB mRNA [3]; 0.89 mg/kg single iv dose): 29.0 % of saline
- ApoB mRNA/mGAPDH expression as % of saline in liver (ApoB mRNA [3]; 0.89 mg/kg single iv dose): 53.8 % of saline
- Oligonucleotide content in kidney tissue ([4]; 0.22 mg/kg single iv dose): 0.337 µg/g
- Oligonucleotide content in liver tissue ([4]; 0.22 mg/kg single iv dose): 0.059 µg/g
- Oligonucleotide content in kidney tissue ([4]; 0.45 mg/kg single iv dose): 0.506 µg/g
- Oligonucleotide content in liver tissue ([4]; 0.45 mg/kg single iv dose): 0.173 µg/g
- Oligonucleotide content in kidney tissue ([4]; 0.89 mg/kg single iv dose): 1.050 µg/g
- Oligonucleotide content in liver tissue ([4]; 0.89 mg/kg single iv dose): 0.470 µg/g
- serum cholesterol percent of saline ([5]; 0.22 mg/kg single iv dose): 104.3% of saline
- serum cholesterol percent of saline ([5]; 0.45 mg/kg single iv dose): 86.8% of saline
- serum cholesterol percent of saline ([5]; 0.89 mg/kg single iv dose): 66.9% of saline
- ALT levels (U/L) in serum at day 3 as % of saline (ALT in serum (Example 6); 0.22 mg/kg single iv dose): 91 % of saline
- ALT levels (U/L) in serum at day 3 as % of saline (ALT in serum (Example 6); 0.45 mg/kg single iv dose): 151 % of saline
- ALT levels (U/L) in serum at day 3 as % of saline (ALT in serum (Example 6); 0.89 mg/kg single iv dose): 217 % of saline
- IC50 (ApoB mRNA [6]; 4 h pulse/72 h total incubation): 2620 nM
- IC50 (ApoB mRNA [6]; 72 h oligonucleotide treatment): 331 nM
- oligonucleotide content in the cell culture ([7]; 4 h pulse, 72 hours total incubation, 1 μM): 0.1 pmol/μg protein
- oligonucleotide content in the cell culture ([7]; 4 h pulse, 72 hours total incubation, 3 μM): 0.4 pmol/μg protein
- oligonucleotide content in the cell culture ([7]; 4 h pulse, 72 hours total incubation, 9 μM): 1.0 pmol/μg protein
- oligonucleotide content in the cell culture ([7]; 4 h pulse, 72 hours total incubation, 27 μM): 1.4+/−0.2 pmol/μg protein
- oligonucleotide content in the cell culture ([7]; 72 h oligonucleotide treatment, 0.11 μM): 0.5 pmol/μg protein
- oligonucleotide content in the cell culture ([7]; 72 h oligonucleotide treatment, 0.33 μM): 1.5 pmol/μg protein
- oligonucleotide content in the cell culture ([7]; 72 h oligonucleotide treatment, 1 μM): 7.9 pmol/μg protein
- oligonucleotide content in the cell culture ([7]; 72 h oligonucleotide treatment, 3 μM): 14.5 pmol/μg protein
- oligonucleotide content in the cell culture ([7]; 72 h oligonucleotide treatment, 9 μM): 34.1 pmol/μg protein
- oligonucleotide content in the cell culture ([7]; 72 h oligonucleotide treatment, 27 μM): 34.2+/−0.7 pmol/μg protein
